# pIC50: −log10 of the molar value. Where two headings read alike, the source gives them in different places.
# What was measured:
# MCF7 CSCs = experiment: 3D-mammosphere formation assay; format: cell-based, human; conditions: for pIC50: 5 days, non-adherent conditions, read-out: IC50 for inhibiting 3D anchorage-independent propagation (mammosphere formation)
# Protocol: For the 3D-Mammosphere Assay, a single cell suspension of MCF7 cells was prepared using enzymatic (lx Trypsin-EDTA, Sigma Aldrich) and manual disaggregation (25-gauge needle). Cells were then plated at a density of 500 cells/cm^2 in mammosphere medium (DMEM-F12/B27/EGF (20-ng/ml)/PenStrep) in non-adherent conditions, in culture dishes coated with (2-hydroxyethylmethacrylate) (poly-HEMA, Sigma). Cells were grown for 5 days and maintained in a humidified incubator at 37° C. at an atmospheric pressure in 5% (v/v) carbon dioxide/air. After 5 days in culture, spheres>50 μm were counted using an eye-piece graticule, and the percentage of cells plated which formed spheres was calculated and is referred to as percent mammosphere formation, normalized to vehicle-alone treated controls. Mammosphere assays were performed in triplicate and repeated three times independently.
# E. coli (ATCC 25922) = experiment: Bacterial growth assay (broth microdilution, resazurin); format: cell-based, Escherichia coli; conditions: Gram-negative, 100-0.78 μM
# Protocol: (§1) Bacterial Growth Assays: Briefly, antibiotic activity was assessed using standard assay systems. The antibiotic activity of Doxycycline analogues was determined experimentally, using Resazurin (R7017; Sigma-Aldrich, Inc.) as a probe, in a 96-well plate format, using standard strains of E. coli and S. aureus. The minimum inhibitory concentration (MIC) for the studied compounds was determined using the broth microdilution method, the reference susceptibility test for rapidly growing aerobic or facultative microorganism. The assays were performed according to the Clinical and Laboratory Standards Institute (CLSI) guidelines. The test compounds and positive control (doxycycline, Sigma Aldrich #D1822) stock solutions were prepared at 25 mM in DMSO and serially diluted (2-fold dilution from 200-1.56 tiM) in cation adjusted Mueller Hinton Broth (MHB, Sigma Aldrich #90922) in 96 well transparent plates (VWR #734-2781) into a final volume of 50 μL/well. Staphylococcus aureus (ATCC 29213) and E. coli (ATCC 25922) cultures were grown overnight at 37° C. in Mueller Hinton Agar (MHA, Sigma Aldrich #70191). A single colony of each strain was then grown overnight at 37° C. in MHB until OD600˜0.6-0.8 and further diluted into MHB to a concentration of […] colony forming units (CFU)/mL, which was equivalent to an OD600˜0.01. Then, 50 μL of the diluted inoculums was transferred to the wells of the previously prepared 96-well plates containing the test compounds, negative control (1% DMSO in MHB) and positive control (doxycycline). Final wells volume was 100 μL, final concentrations for the testing compounds were between 100-0.78 μM and final microorganism concentration was 5×10^5 CFU/mL. Subsequently, 10 uL of one negative control well was plated in a petri dish containing MHA to check CFU and the purity of the cultures. The plates were incubated at 37° C. for 24 h after which 20 tit of resazurin solution (0.2 mg/mL) was added to the wells followed by 1 h30 min incubation at 37° C. The OD570 and OD600 were measured in a microplate reader (BMG FLUOstar Omega). […] MIC values were determined by three independent experiments.
# [1] = system: Staphylococcus aureus (ATCC 29213); experiment: as above; format: cell-based; conditions: S. aureus, Gram-positive, 100-0.78 μM
# Protocol: as §1
# MCF7 cells [2] = experiment: Cell cycle analysis (FACS); format: cell-based, human; conditions: MCF7 2D-monolayers, 72 hours, 10 μM
# Protocol: Cell Cycle Analysis: Performed on MCF7 cells treated with Doxycycline, Doxy-Myr or vehicle-alone. Briefly, after trypsinization, the re-suspended cells were incubated with 10 ng/ml of Hoechst solution (Thermo Fisher Scientific) for 40 min at 37° C. under dark conditions. Following a 40 min period, the cells were washed and re-suspended in PBS Ca/Mg for acquisition on the Attune NxT flow cytometer (Thermo Scientific). 10,000 events per condition were analyzed. Gated cells were manually-categorized into cell-cycle stages.
# MCF7 cells [3] = experiment: Cell proliferation, xCELLigence RTCA; format: cell-based, human; conditions: MCF7 2D-monolayers, relative to control (no treatment)
# Protocol: Cell Proliferation: Briefly, MCF7 cells or hTERT-BJ1 fibroblasts were seeded in each well (10,000 cells/well) and employed to assess the efficacy of Doxycycline and Doxy-Myr, using RTCA (real-time cell analysis), via the measurement of cell-induced electrical impedance plate (Acea Biosciences Inc.). This approach allows the quantification of the onset and kinetics of the cellular response. Experiments were repeated several times independently, using quadruplicate samples for each condition.
# MCF7 cells [4] = experiment: Cell viability (SRB) assay, MCF7 2D-monolayers; format: cell-based, human; conditions: 3 days, 5 to 20 μM
# Protocol: (§2) Cell Viability Assay: The Sulphorhodamine (SRB) assay is based on the measurement of cellular protein content. After treatment for 72 h in 96-well plates, (8,000 cells/well), cells were fixed with 10% trichloroacetic acid (TCA) for 1 hour in the cold room, and were dried overnight at room temperature. Then, cells were incubated with SRB for 15 min, washed twice with 1% acetic acid, and air dried for at least 1 hour. Finally, the protein-bound dye was dissolved in a 10 mM Tris, pH 8.8, solution and read using the plate reader at 540-nm.
# chick embryo = experiment: CAM assay, embryo tolerability / toxicity; format: in vivo; conditions: for Alive / Dead: number of embryos
# Protocol: a) Preparation of Chicken Embryos. […] At that moment (E9), the chorioallantoic membrane (CAM) was dropped down by drilling a small hole through the eggshell into the air sac, and a 1 cm^2 window was cut in the eggshell above the CAM.
# e) Embryo Tolerability Assay. Before each administration, the treatment tolerability was evaluated by scoring the number of dead embryos.
# [5] = system: normal human fibroblasts (hTERT-BJ1); experiment: Cell viability (SRB) assay, normal fibroblasts 2D-monolayers; format: cell-based; conditions: hTERT-BJ1 2D-monolayers, 3 days, 5 to 20 μM
# Protocol: as §2
# [6] = system: CSC burden in early breast cancer patients; conditions: oral 200 mg/day for 14 days; cited from earlier work
compound,measurement,setting,value
"CCCCCCCCCCCC(=O)Nc1ccc2c(c1O)C(=O)C1=C(O)[C@]3(O)C(=O)C(C(N)=O)=C(O)[C@@H](N(C)C)C3[C@@H](O)C1[C@H]2C (stereo partly drawn) [Doxy-Laur, (4S,5S,6R,12aS)-4-(dimethylamino)-9-(dodecanoylamino)-3,5,10,12,12a-pentahydroxy-6-methyl-1,11-dioxo-4a,5,5a,6-tetrahydro-4H-tetracene-2-carboxamide]",pIC50,"MCF7 CSCs; Homo sapiens, MCF7, 120 h",5.24
same,antibiotic activity (growth inhibition),E. coli (ATCC 25922),did not show any antibiotic activity
same,antibiotic activity (growth inhibition),[1],did not show any antibiotic activity
"CCCCCCCCCCCCCC(=O)Nc1ccc2c(c1O)C(=O)C1=C(O)[C@]3(O)C(=O)C(C(N)=O)=C(O)[C@@H](N(C)C)C3[C@@H](O)C1[C@H]2C (stereo partly drawn) [Doxy-Myr, (4S,5S,6R,12aS)-4-(dimethylamino)-3,5,10,12,12a-pentahydroxy-6-methyl-1,11-dioxo-9-(tetradecanoylamino)-4a,5,5a,6-tetrahydro-4H-tetracene-2-carboxamide]",pIC50,MCF7 CSCs,5.46
same,antibiotic activity (growth inhibition),E. coli (ATCC 25922),did not show any antibiotic activity
same,effect on cell cycle progression,MCF7 cells [2],did not have any significant effects on reducing cell cycle progression
same,effect on proliferation,MCF7 cells [3],did not inhibit the proliferation
same,effect on cell viability,MCF7 cells [4],no appreciable effects on cell viability
same,antibiotic activity (growth inhibition),[1],did not show any antibiotic activity
same,% Alive,chick embryo; 0.125 mM,78.57%
same,% Dead,chick embryo; 0.125 mM,21.43%
same,Alive,chick embryo; 0.125 mM,11
same,Dead,chick embryo; 0.125 mM,3
same,% Alive,chick embryo; 0.250 mM,92.31%
same,% Dead,chick embryo; 0.250 mM,7.69%
same,Alive,chick embryo; 0.250 mM,12
same,Dead,chick embryo; 0.250 mM,1
same,embryo toxicity,chick embryo; CAM assay,little-to-no embryo toxicity
same,effect on cell viability,[5],no appreciable effects on cell viability
"CCCCCCCCCCCCCCCC(=O)Nc1ccc2c(c1O)C(=O)C1=C(O)[C@]3(O)C(=O)C(C(N)=O)=C(O)[C@@H](N(C)C)C3[C@@H](O)C1[C@H]2C (stereo partly drawn) [Doxy-Pal, (4S,5S,6R,12 aS)-4-(dimethylamino)-9-(hexadecanoylamino)-3,5,10,12,12a-pentahydroxy-6-methyl-1,11-dioxo-4a,5,5 a,6-tetrahydro-4H-tetracene-2-carboxamide]",pIC50,"MCF7 CSCs; Homo sapiens, MCF7, 120 h",4.98
same,antibiotic activity (growth inhibition),E. coli (ATCC 25922),did not show any antibiotic activity
same,antibiotic activity (growth inhibition),[1],did not show any antibiotic activity
C[C@H]1c2ccc(NC(=O)CCCCC[P+](c3ccccc3)(c3ccccc3)c3ccccc3)c(O)c2C(=O)C2=C(O)[C@]3(O)C(=O)C(C(N)=O)=C(O)[C@@H](N(C)C)C3[C@@H](O)C21.C[C@H]1c2ccc(NC(=O)CCCCC[P+](c3ccccc3)(c3ccccc3)c3ccccc3)c(O)c2C(=O)C2=C(O)[C@]3(O)C(=O)C(C(N)=O)=C(O)[C@@H](N(C)C)C3[C@@H](O)C21.O=C([O-])C(=O)[O-] (stereo partly shown) [Doxy-TPP],inhibitory potency compared with Doxycycline,MCF7 CSCs,not more potent that Doxycycline
"C[C@H]1c2cccc(O)c2C(=O)C2=C(O)[C@]3(O)C(=O)C(C(N)=O)=C(O)[C@@H](N(C)C)C3[C@@H](O)C21 (stereo partly drawn) [Doxycycline, (4S,5 S,6R,12aS)-4-(dimethylamino)-3,5,10,12,12a-pentahydroxy-6-methyl-1,11-dioxo-4a,5,5 a,6-tetrahydro-4H-tetracene-2-carboxamide]",antibiotic activity (growth inhibition),E. coli (ATCC 25922),potently and effectively inhibits the growth
same,effect on proliferation,MCF7 cells [3],did not inhibit the proliferation
same,effect on cell viability,MCF7 cells [4],no appreciable effects on cell viability
same,antibiotic activity (growth inhibition),[1],potently and effectively inhibits the growth
same,positive response rate,[6],~90%
same,% Dead,chick embryo; 0.125 mM,15.38%
same,Dead,chick embryo; 0.125 mM,2
same,% Dead,chick embryo; 0.250 mM,23.08%
same,Dead,chick embryo; 0.250 mM,3
same,embryo toxicity,chick embryo; in vivo,little-to-no embryo toxicity
same,effect on cell viability,[5],no appreciable effects on cell viability

# Reference: patent publication US20230174464A1, “MYRISTOYL DERIVATIVES OF 9-AMINO-DOXYCYCLINE FOR TARGETING CANCER STEM CELLS AND PREVENTING METASTASIS” (LUNELLA BIOTECH, INC., priority 2020, published 2023)
